The test has as its target T1, Sphingomyelin Synthase 2 (SMS2) (Homo sapiens, UniProt Q8NHU3).
T1 construct: made in house; used as homogenate
T1 sequence (Q8NHU3 1-365): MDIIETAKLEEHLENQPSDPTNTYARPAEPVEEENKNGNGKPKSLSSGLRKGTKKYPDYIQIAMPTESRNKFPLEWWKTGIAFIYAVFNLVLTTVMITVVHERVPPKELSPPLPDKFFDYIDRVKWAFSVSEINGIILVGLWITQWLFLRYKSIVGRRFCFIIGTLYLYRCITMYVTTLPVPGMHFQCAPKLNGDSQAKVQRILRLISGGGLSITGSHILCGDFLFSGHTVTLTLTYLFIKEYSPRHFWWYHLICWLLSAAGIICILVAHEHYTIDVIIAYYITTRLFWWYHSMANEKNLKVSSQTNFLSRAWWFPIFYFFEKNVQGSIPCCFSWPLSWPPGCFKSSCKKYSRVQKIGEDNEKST
In words: In vitro inhibition of sphingomyelin synthase 2, HPLC fluorogenic quantitative detecting method (C6-NBD-ceramide to C6-NBD-SM, SMS2 high-expressed insect cell homogenate). The test is classed as biochemical. To be noted: for IC50: read-out: SMS2 Median Inhibitory Concentration IC50; for inhibition at 5 µM / inhibition at 50 µM / inhibition at 10 µM: read-out: inhibition rate. From the text: The second aim of the present invention is to show the use of 2-alkoxy benzene formyl arylamines in preparing SMS small-molecule inhibitors. This invention evaluate SMS inhibitory activity of 2-alkoxy benzene formyl arylamines as scheme I through HPLC fluorogenic quantitative detecting method reported (Xiaodong Deng; Hong Sun; et al. Analytical Letters, 2012, 45:12, 1581-1589), which can make it possible to calculate the catalytic activity difference of SMS treated with inhibitors or not through content changes of NBD-ceramide and NBD-sphingomyelin.
9. The organic solvents were purchased from Shanghai Sinopharm Reagent Company; methanol is of HPLC grade; water is ultrapure water filtrated by Milli-Q pump and deionized and ultrafiltrated by 0.22 μm ultrafiltration membrane. Other biological supplies are purchased in domestic companies. 10. Preparation of SMS homogenate extraction buffer (Buffer1): (50 mM Tris hydrochloride, pH 7.4, 5% anhydrous sucrose, 1 mM ethylenediaminetetraacetic acid) 1.2114 g tris(hydroxymethyl)aminomethane hydrochloride (Tris-HCl) was dissolved in 100 ml distilled water. Then 84 ml 0.1 mol/L hydrochloric acid was added. Constant volume to 200 ml. Finally, 10 g sucrose and 58.45 mg EDTA were dissolved in the mixture. 11. Preparation of SMS test buffer […]: (100 mM Hepes, 30 mM MnCl2, 3% fatty acid free BSA): 1.1916 g 4-(2-hydroxyethyl)-1-peperazineethanesulfonic acid (Hepes), 0.2969 g MnCl2.4H2O and 0.3 g fatty acid free bovine serum albumin were dissolved in distilled water then constant volume to 50 ml. 12. Preparation of under tested compound solution: To each accurate weighed compound for 1˜2 mg, an appropriate amount of DMSO was added to formulate a stock solution of 6 mM precisely. To a certain volume of the DMSO stock solution of the test compound, the appropriate volume of DMSO was added to dilute the solution to the desired concentration. 13. SMS2 high-expressed insect cell homogenate was prepared by Xu Yanhui group from Institutes of Biomedical Sciences, Fudan University. Part 1 Activity Assay for Inhibition of 2-Alkoxy-Benzoyl Aromatic Amines to Sphingomyelin Synthase 2
250 μL tri-distilled water, 30 μL Buffer2, 4 μL SMS2 high-expressed insect cell homogenate (total protein content is 0.5 μg/μL) and 10 μL DMSO or DMSO solution of under tested compound were added to 1.5 mL eppendorf tube, vortex mixed for 30 seconds and then incubated in a 37° C. water bath for 0.5 h. 3 μL ethanol solution of DMPC (40 mM) and 3 μL ethanol solution of C6-NBD-Ceramide (1.16 mM) were added, vortex mixed for 30 seconds, and then incubate in a 37° C. water bath for 2.0 hours. To it 600 μL anhydrous ethanol was added vortex mixed for 1 minute and centrifuged 10 minutes in 10000 rpm and 600 μL supernatant was taken out and stored at 4° C. for HPLC analysis.
Using the same HPLC fluorogenic quantitative detecting method as reference (Xiaodong Deng; Hong Sun; et al. Analytical Letters, 2012, 45:12, 1581-1589) to analysize samples obtained above. Analysize and record peak areas of C6-NBD-SM (Asm) and C6-NBD-Ceramide (Acer) of each sample from blank group, positive control group (compound D2) and under tested compound group. The data were parallelly determined for 3 times. Calculate inhibition rate from the formula below: […]
The DMSO stock solution of under tested compound (6 mM) was diluted stepwise into five concentration gradient. 10 μL solution of each concentration was added into the trial system to prepare samples with the method mentioned in the first step of application case 12. The Asm values of the five concentration solution of tested compound were measured, and the inhibition rate under the five concentration were calculated and fitted to obtain median inhibitory concentration (IC50). Each compound was measured three parallel groups. SMS2 median inhibitory concentration of Scheme I-1˜I-60 are listed below in Table 1: […]

The mark [1] stands for this setting: five concentrations, three parallel groups, experimental value.

Read-outs that look alike come from different tables or passages of the source.

Results on 34 compounds are retold here after patent publication US10196359B2, “2-alkyloxy benzene formyl arylamine compound and pharmaceutical use thereof” (FUDAN UNIVERSITY, priority 2014, dated 2019).

With “2-(2-cyano-benzyloxy)-N-(pyridin-3-yl) benzamide [Scheme I-6]”, the inhibition rate (at 50 μM) was determined as 50.0%. Moreover, under setting [1], the IC50 amounted to 31800 nM.
Take “2-(3-bromo-benzyloxy)-N-(pyridin-3-yl) benzamide [Scheme I-8]”: the inhibition rate (at 50 μM) stood at 67.1%. Further, the IC50 under setting [1] is over 50000 nM.
“2-(3-cyano-benzyloxy)-N-(pyridin-3-yl) benzamide [Scheme I-4]” displayed an inhibition rate (at 50 μM) of 66.0%. For the same compound, the IC50 under setting [1] amounted to 60700 nM.
For “2-(4-bromo-benzyloxy)-N-(pyridin-3-yl) benzamide [Scheme I-9]” the same measures were 14.7% and over 100000 nM.
In turn, “2-((2,5-dichloro) benzyloxy)-N-(pyridin-3-yl) benzamide [Scheme I-33]” displayed an inhibition rate (at 10 μM) of 87.9%. Also, the IC50 under setting [1] was 1000 nM.
As for “2-((2,5-dimethoxy) benzyloxy)-N-(pyridin-3-yl) benzamide [Scheme I-25]”, the inhibition rate (at 10 μM) worked out at 78.9%. Also, the IC50 under setting [1] was 2800 nM.
The like results for “2-((2,6-dimethyl) benzyloxy)-N-(pyridin-3-yl) benzamide [Scheme I-29]” were, in that order, 88.8% and 900 nM.
Under “at 10 μM”, “2-((2-benzyloxy) benzyloxy)-N-(pyridin-3-yl) benzamide [Scheme I-26]” displayed an inhibition rate of 76.9%. In addition, under setting [1], the IC50 was 2200 nM.
Regarding “2-((2-chloro-5-fluoro) benzyloxy)-N-(pyridin-3-yl) benzamide [Scheme I-16]”, under “at 5 μM”, the inhibition rate was found to be 75.7%. The IC50 under setting [1] came to 700 nM.
For the setting “at 10 μM”, “2-((2-ethoxy) benzyloxy)-N-(pyridin-3-yl) benzamide [Scheme I-30]” displayed an inhibition rate of 86.3%. Besides, the IC50 under setting [1] was determined as 1200 nM.
On to “2-((2-ethyl) benzyloxy)-N-(pyridin-3-yl) benzamide [Scheme I-27]”, for which, for the setting “at 5 μM”, the inhibition rate is listed as 78.4%. Under setting [1], the IC50 stood at 900 nM.
“2-((2-methoxy-5-chloro) benzyloxy)-N-(pyridin-3-yl) benzamide [Scheme I-31]” displayed an inhibition rate (at 10 μM) of 92.4%. For the same compound, under setting [1], the IC50 was found to be 700 nM.
“2-((2-nitro) benzyloxy)-N-(pyridin-3-yl) benzamide [Scheme I-12]” gave an inhibition rate (at 50 μM) of 35.5%. For the same compound, the IC50 under setting [1] is over 50000 nM.
In the case of “2-((3-methoxy) benzyloxy)-N-(pyridin-3-yl) benzamide [Scheme I-23]”, the inhibition rate (at 10 μM) is 59.8%. In addition, under setting [1], the IC50 is 5700 nM.
For the compound “2-((4-cyano) benzyloxy)-N-(pyridin-3-yl) benzamide [Scheme I-15]”, under “at 50 μM”, the inhibition rate came to 15.0%. Moreover, the IC50 under setting [1] was over 100000 nM.
Take “2-((4-ethyl) benzyloxy)-N-(pyridin-3-yl) benzamide [Scheme I-28]”: the inhibition rate (at 10 μM) was determined as 10.1%. Also, the IC50 under setting [1] is over 100000 nM.
“2-((4-methyl) benzyloxy)-N-(pyridin-3-yl) benzamide [Scheme I-14]” yielded an inhibition rate (at 50 μM) of 69.0%. Also, the IC50 under setting [1] is over 25000 nM.
The like results for “2-((4-nitro) benzyloxy)-N-(pyridin-3-yl) benzamide [Scheme I-13]” were, in that order, 11.8% and over 100000 nM.
The compound “2-((4-trifluoromethyl) benzyloxy)-N-(pyridin-3-yl) benzamide [Scheme I-20]” displayed an inhibition rate (at 10 μM) of 3.9%. For the same compound, the IC50 under setting [1] was over 100000 nM.
Turning to “2-((5-chloro-2-heptyloxy) benzyloxy)-N-(pyridin-3-yl) benzamide [Scheme I-40]”, the inhibition rate (at 5 μM) is recorded as 87.1%. Also, the IC50 under setting [1] is 400 nM.
The like results for “2-((5-chloro-hexyloxy) benzyloxy)-N-(pyridin-3-yl) benzamide [Scheme I-39]” were, in that order, 85.5% and 500 nM.
For the compound “2-((5-fluoro-2-methyl) benzyloxy)-N-(pyridin-3-yl) benzamide [Scheme I-21]”, for the setting “at 10 μM”, the inhibition rate turned out to be 84.7%. Also, under setting [1], the IC50 is 700 nM.
Usually inhibition stands for the relative decrease from the control value, in per cent. On to `O=C(Nc1cccnc1)c1ccccc1OCc1ccccc1F` [Scheme I-1, 2-(2-fluoro-benzyloxy)-N-(pyridin-3-yl) benzamide], for which the IC50 amounted to 3500 nM and the inhibition at 5 µM was found to be 53.8%.
Take `O=C(Nc1cccnc1)c1ccccc1OCc1cccc(F)c1` [Scheme I-2, 2-(3-fluoro-benzyloxy)-N-(pyridin-3-yl) benzamide]: the IC50 came out at 1600 nM and the inhibition at 5 µM turned out to be 69.3%.
In the case of `O=C(Nc1cccnc1)c1ccccc1OCc1cccc([N+](=O)[O-])c1` [Scheme I-3, 2-(3-nitro-benzyloxy)-N-(pyridin-3-yl) benzamide], the inhibition at 50 µM (at 50 μM) came to 64.6%. Also, the IC50 under setting [1] was over 50000 nM.
The like results for `COc1ccc(COc2ccccc2C(=O)Nc2cccnc2)cc1` [Scheme I-5, 2-((4-methoxy)benzyloxy)-N-(pyridin-3-yl) benzamide] were, in that order, 23% and over 100000 nM.
For `O=C(Nc1cccnc1)c1ccccc1OCc1cccc(Cl)c1` [Scheme I-7, 2-(3-chloro-benzyloxy)-N-(pyridin-3-yl) benzamide], the IC50 was 1400 nM and the inhibition at 5 µM was found to be 70.6%.
For the compound `Cc1cccc(COc2ccccc2C(=O)Nc2cccnc2)c1` [Scheme I-10, 2-((3-methyl)benzyloxy)-N-(pyridin-3-yl) benzamide], the inhibition at 50 µM (at 50 μM) came to 69.5%. For the same compound, under setting [1], the IC50 is over 25000 nM.
Turning to `Cc1ccccc1COc1ccccc1C(=O)Nc1cccnc1` [Scheme I-11, 2-((2-methyl)benzyloxy)-N-(pyridin-3-yl) benzamide], the IC50 came to 1500 nM and the inhibition at 5 µM is 71.3%.
As for `O=C(Nc1cccnc1)c1ccccc1OCc1c(Cl)cccc1Cl` [Scheme I-17, 2-((2,6-dichlorophenyl)benzyloxy)-N-(pyridin-3-yl) benzamide], where the note is “at 5 μM”, the inhibition at 5 µM was determined as 77.2%. Under setting [1], the IC50 came out at 700 nM.
For the compound `O=C(Nc1cccnc1)c1ccccc1OCc1cccc(Cl)c1F` [Scheme I-18, 2-((2-fluoro-3-chloro)benzyloxy)-N-(pyridin-3-yl) benzamide], the IC50 stood at 3100 nM and the inhibition at 5 µM is 55.2%.
Take `CCOC(=O)c1ccc(COc2ccccc2C(=O)Nc2cccnc2)cc1` [Scheme I-19, 4-((2-(pyridin-3-ylcarbamoyl)phenoxy)methyl) benzene carboxylic acid ethyl ester]: the inhibition at 10 µM (at 10 μM) is 2.9%. Under setting [1], the IC50 was over 100000 nM.
For `CCOC(=O)COc1cccc(COc2ccccc2C(=O)Nc2cccnc2)c1` [Scheme I-22] the same measures were 15.3% and over 100000 nM.
For `COc1ccccc1COc1ccccc1C(=O)Nc1cccnc1` [Scheme I-24, 2-((2-methoxy)benzyloxy)-N-(pyridin-3-yl) benzamide] the same measures were 89.4% and 800 nM.
